Measured values from ChEMBL document CHEMBL1140309, “p53 Activation by small molecules: application in oncology” (J Med Chem, 2005).

Biological target: Tumour suppressor p53/oncoprotein Mdm2 (Homo sapiens, UniProt P04637+Q00987)
Assay: Inhibitory activity against MDM2 (murine double minute-2 gene) binding to p53
Format: protein assay

Tumour suppressor p53/oncoprotein Mdm2, sequence (P04637 whole entry): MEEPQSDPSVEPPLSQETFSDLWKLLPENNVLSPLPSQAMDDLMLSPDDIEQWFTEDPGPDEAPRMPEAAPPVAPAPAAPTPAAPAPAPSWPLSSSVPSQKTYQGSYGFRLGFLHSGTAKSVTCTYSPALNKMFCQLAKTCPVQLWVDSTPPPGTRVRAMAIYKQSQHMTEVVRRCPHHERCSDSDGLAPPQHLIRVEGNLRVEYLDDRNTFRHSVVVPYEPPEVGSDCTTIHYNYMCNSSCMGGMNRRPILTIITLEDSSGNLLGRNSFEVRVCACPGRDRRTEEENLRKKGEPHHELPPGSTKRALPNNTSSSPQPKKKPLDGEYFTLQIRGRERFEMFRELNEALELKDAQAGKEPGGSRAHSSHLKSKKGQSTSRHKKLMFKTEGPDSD
Tumour suppressor p53/oncoprotein Mdm2, sequence (Q00987 whole entry): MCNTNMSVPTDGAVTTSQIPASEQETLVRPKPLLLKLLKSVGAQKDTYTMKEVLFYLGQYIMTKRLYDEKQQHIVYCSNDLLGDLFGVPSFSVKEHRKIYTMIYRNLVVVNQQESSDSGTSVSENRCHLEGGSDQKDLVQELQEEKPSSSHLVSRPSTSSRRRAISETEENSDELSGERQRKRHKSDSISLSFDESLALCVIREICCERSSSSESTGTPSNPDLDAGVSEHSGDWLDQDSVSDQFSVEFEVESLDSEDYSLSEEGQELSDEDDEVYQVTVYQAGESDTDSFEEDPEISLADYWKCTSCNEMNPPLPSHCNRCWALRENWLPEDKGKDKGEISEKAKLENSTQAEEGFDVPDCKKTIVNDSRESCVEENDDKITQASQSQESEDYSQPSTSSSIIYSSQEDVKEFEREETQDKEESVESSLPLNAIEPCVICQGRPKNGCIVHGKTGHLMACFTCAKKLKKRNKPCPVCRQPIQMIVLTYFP

**Q.** Which IC50 does the source give for CC(C)Oc1ccc(C(=O)NS(=O)(=O)c2ccc(NN=C3C(=O)N(c4ccccc4)N(c4ccccc4)C3=O)cc2)cc1 here?
**A.** 30 µM
